Tests used:
Set-up in all cases: species or system mice (C57BL/6)
anti-OVA IgG antibodies = assay: Adjuvant activity: anti-OVA total IgG (ELISA) in sera of mice vaccinated with OVA plus saponin (In Vivo Experiment 1); conditions: C75BL6 mice, three subcutaneous injections 10 days apart, OVA 10 μg + saponin 50 μg, endpoint sera day 28, total IgG ELISA
Procedure: Vaccination of mice. In the case of the synthetic saponin adjuvants, groups of five mice (C57BL/6, female, 6-8 weeks old) were vaccinated subcutaneously three times every 10 days (days 0, 11, and 21) with endotoxin-free OVA (EndoFit™ Ovalbumin, Invitrogen) (10 μg/mouse) in phosphate-buffered saline (PBS, 100 μL) either alone (no-adjuvant control group) or with the synthetic saponins (50 μg/mouse). To analyze the antibody responses over time, mice were bled via the submandibular vein at the indicated pre-(day −1) and post-vaccination time points (days 18), and by cardiac puncture at the experimental endpoint (day 28). Blood was collected in BD Microtainer® tubes (Clot Activator/SST™ Gel) and centrifuged at 7500 g for 10 min, after which serum was harvested and stored at −20° C. until further analysis.
Quantification of antibody production. Antibody titers against OVA protein for the saponin adjuvants, or against MUC1 and TnMUC1 antigens in the case of the conjugate constructs were measured by an indirect enzyme-linked immunosorbent assay (ELISA). Briefly, ELISA plates (Thermo Scientific) were coated with endotoxin-free OVA (EndoFit™ Ovalbumin; Invitrogen) or with BSA-MUC1 or BSA-TnMUC1 conjugates at 0.05 μg/well in carbonate buffer (pH 9.5), and plates were incubated overnight at 4° C. After washing the wells (PBS, 10 mM, containing 0.05% Tween 20), plates were blocked with 10% of fetal calf serum (FCS, Biowest) in PBS buffer for 1 h. Serial dilutions of mouse sera in blocking buffer (10% FCS in PBS buffer) were added to the wells with appropriate controls and incubated for 1 h at room temperature. After washing, goat anti-mouse total IgG (Jackson ImmunoResearch) or subclass specific IgG1, IgG2b, IgG2c and IgG3 (SouthernBiotech) antibodies conjugated to horseradish peroxidase (HRP) were added to each well at the dilution indicated by the manufacturer. After 1 h incubation at room temperature, KPL SureBlue Reserve™ commercial solution (100 μL/well, SeraCare) containing 3,3′,5,5′-tetramethylbenzidine (TMB) was added as peroxidase substrate and after incubation for 10 min, the reaction was stopped with 2 N H2SO4 (100 μL/well). Absorbance (OD, 450 nm) was immediately measured using a BioTek® Synergy HT multi-detection microplate reader.
A straightforward proof-of-principle in vivo experiment was carried out to directly compare their adjuvant activities of prior art compound 12 and the compounds of the invention 1 and 2 in terms of IgG antibody production, using chicken ovalbumin (OVA) as a model antigen. […] Endpoint sera after three immunizations were probed via ELISA assays by coating 96-well plates with OVA (0.05 μg/ml) and total IgG optical density (OD) values (at day 28) were measured (FIG. 1).

anti-MUC1 IgG antibodies = assay: Self-adjuvanting vaccine: anti-MUC1 total IgG (ELISA, BSA-MUC1 coated plates) in sera of immunized mice (In Vivo Experiment 2); conditions: C57BL/6 mice, subcutaneous, days 0, 11, 21, dose equimolar to 50 μg of MUC1 per injection, no external adjuvant, endpoint sera day 28, versus pre-sera
Procedure: (§1) Concerning the saponin-antigen conjugates, groups of five mice (C57BL/6, female, 6-8 weeks old) were vaccinated subcutaneously three times every […] (days 0, 11, and 21) with the glycoconjugate constructs (50 μg/mouse) in phosphate-buffered saline (PBS, 100 μl). To determine the antibody responses over time, mice were bled via submandibular vein at the indicated post-vaccination time point (day 18), and by cardiac puncture at the experimental endpoint (day 28). Blood was collected in BD Microtainer® tubes (Clot Activator/SST™ Gel) and centrifuged at 13000 g for 10 min. Sera were harvested and stored at −20° C. until further analysis.
(§2) Quantification of antibody production. Antibody titers against OVA protein for the saponin adjuvants, or against MUC1 and TnMUC1 antigens in the case of the conjugate constructs were measured by an indirect enzyme-linked immunosorbent assay (ELISA). Briefly, ELISA plates (Thermo Scientific) were coated with endotoxin-free OVA (EndoFit™ Ovalbumin; Invitrogen) or with BSA-MUC1 or BSA-TnMUC1 conjugates at 0.05 μg/well in carbonate buffer (pH 9.5), and plates were incubated overnight at 4° C. After washing the wells (PBS, 10 mM, containing 0.05% Tween 20), plates were blocked with 10% of fetal calf serum (FCS, Biowest) in PBS buffer for 1 h. […] Absorbance (OD, 450 nm) was immediately measured using a BioTek® Synergy HT multi-detection microplate reader. […]

[1] = system: anti-TnMUC1 IgG antibodies; assay: Self-adjuvanting vaccine: anti-TnMUC1 total IgG (ELISA, BSA-TnMUC1 coated plates) in sera of immunized mice (In Vivo Experiment 2); conditions: C57BL/6 mice, subcutaneous, days 0, 11, 21, dose equimolar to 50 μg of MUC1 per injection, no external adjuvant, endpoint sera day 28, versus pre-sera
Procedure: as §1, §2

Compound	anti-OVA IgG antibody response versus negative control group (OVA alone) (anti-OVA IgG antibodies)	anti-OVA IgG titers compared to those induced by previous EA lead saponin 12 (C3-hydroxyl) (anti-OVA IgG antibodies)	production of total anti-MUC1 IgG antibodies (anti-MUC1 IgG antibodies)	production of total anti-TnMUC1 IgG antibodies [1]
C[C@@H]1O[C@@H](O[C@H]2[C@H](OC(=O)[C@]34CCC(C)(C)C[C@H]3C3=CC[C@@H]5[C@@]6(C)CCC(=O)C(C)(C)[C@@H]6CC[C@@]5(C)[C@]3(C)C[C@H]4O)O[C@H](CO)[C@H](NC(=O)CCCCCCCCCCC(=O)O)[C@@H]2O)[C@H](O)[C@H](O)[C@H]1O[C@@H]1OC[C@@H](O)[C@H](O)[C@H]1O [compound 1]	significantly higher than that of the negative control group	increased	–	–
C[C@@H]1O[C@@H](O[C@H]2[C@H](OC(=O)[C@]34CCC(C)(C)C[C@H]3C3=CC[C@@H]5[C@@]6(C)CC/C(=N/O)C(C)(C)[C@@H]6CC[C@@]5(C)[C@]3(C)C[C@H]4O)O[C@H](CO)[C@H](NC(=O)CCCCCCCCCCC(=O)O)[C@@H]2O)[C@H](O)[C@H](O)[C@H]1O[C@@H]1OC[C@@H](O)[C@H](O)[C@H]1O [compound 2]	significantly higher than that of the negative control group	increased (significantly in the latter case)	–	–
CC[C@H](C)C(NC(=O)[C@H](CCCCN)NC(=O)[C@H](Cc1c[nH]c2ccccc12)NC(=O)[C@@H](NC(=O)[C@H](C)NC(=O)[C@H](Cc1ccccc1)NC(=O)[C@H](CC(C)C)NC(=O)[C@H](CCCCN)CC(=O)NO/N=C1/CCC2(C)C(CCC3(C)C2CC=C2C4CC(C)(C)CC[C@]4(C(=O)O[C@]4([C@@H]5OC(C)[C@H](O[C@@H]6OC[C@@H](O)C(O)C6O)C(O)C5O)OC(CO)[C@H](NC(=O)CCCCCNC(=O)COCCOCCOCC(=O)NCC(=O)N[C@H](C(=O)N[C@H](C(=O)O[C@@H](CO)C(=O)N[C@@H](C)C(=O)N5CCC[C@H]5C(=O)N[C@@H](CC(=O)O)C(=O)N[C@H](C(=O)N[C@@H](CCCNC(=N)N)C(=O)N5CCC[C@H]5C(=O)N[C@@H](C)C(=O)N5CCC[C@H]5C(=O)NCC(=O)N[C@@H](CO)C(=O)N[C@H](C(=O)N[C@@H](C)C(N)=O)C(C)O)C(C)O)C(C)O)C(C)C)C(O)C4O)C(O)CC23C)C1(C)C)C(C)C)C(=O)N[C@H](C(=O)N[C@@H](Cc1ccc(O)cc1)C(=O)N[C@@H](CCCCN)C(=O)N[C@@H](CC(=O)O)C(=O)N[C@H](C(=O)O)[C@@H](C)O)[C@@H](C)O (stereo partly drawn) [compound 10, PV-Echinocystic Acid Saponin-MUC1 Tri-Conjugate]	–	–	high levels	–
CC[C@H](C)C(NC(=O)[C@H](CCCCN)NC(=O)[C@H](Cc1c[nH]c2ccccc12)NC(=O)[C@@H](NC(=O)[C@H](C)NC(=O)[C@H](Cc1ccccc1)NC(=O)[C@H](CC(C)C)NC(=O)[C@H](CCCCN)CC(=O)NO/N=C1/CCC2(C)C(CCC3(C)C2CC=C2C4CC(C)(C)CC[C@]4(C(=O)O[C@]4([C@@H]5OC(C)[C@H](O[C@@H]6OC[C@@H](O)C(O)C6O)C(O)C5O)OC(CO)[C@H](NC(=O)CCCCCNC(=O)COCCOCCOCC(=O)NCC(=O)N[C@H](C(=O)N[C@H](C(=O)O[C@@H](CO)C(=O)N[C@@H](C)C(=O)N5CCC[C@H]5C(=O)N[C@@H](CC(=O)O)C(=O)N[C@H](C(=O)N[C@@H](CCCNC(=N)N)C(=O)N5CCC[C@H]5C(=O)N[C@@H](C)C(=O)N5CCC[C@H]5C(=O)NCC(=O)N[C@@H](CO)C(=O)N[C@H](C(=O)N[C@@H](C)C(N)=O)C(C)O)C(C)O[C@H]5OC(CO)[C@H](O)C(O)C5NC(C)=O)C(C)O)C(C)C)C(O)C4O)C(O)CC23C)C1(C)C)C(C)C)C(=O)N[C@H](C(=O)N[C@@H](Cc1ccc(O)cc1)C(=O)N[C@@H](CCCCN)C(=O)N[C@@H](CC(=O)O)C(=O)N[C@H](C(=O)O)[C@@H](C)O)[C@@H](C)O (stereo partly drawn) [compound 11, PV-Echinocystic Acid Saponin-TnMUC1 Tri-Conjugate]	–	–	–	high levels

— patent publication US20250114448A1, “SAPONIN-BASED ADJUVANTS AND VACCINES” (ASOCIACIÓN CENTRO DE INVESTIGACIÓN COOPERATIVA EN …, priority 2022, published 2025)
